Common to all, as to assay type: cell-based
Test [1] deals with HIV-1 2.12 virus with Thr124/Thr125 variant integrase (NL4.3 integrase). Put plainly: C8166 HIV-1 luciferase assay (EC50), T124/T125 integrase variant virus. The note with it: Human immunodeficiency virus 1, C8166, read-out: EC50 (nM) T124/T125. The source says:
(§1) C8166 cells are derived from a human T-lymphotrophic virus type 1 immortalized but nonexpressing line of cord blood lymphocytes (NIH AIDS reagent 404) and are highly permissive to HIV-1 infection. The pGL3 Basic LTR/TAR plasmid is made by introducing the HIV-1 HxB2 LTR sequence from nucleotide −138 to +80 (Sca1-HindIII) upstream of the luciferase gene in the pGL3 Basic Vector (a promoterless luciferase expression vector from Promega catalogue #E1751) with the gene for blasticidine resistance cloned in. The reporter cells are made by electroporating C8166 cells with pGL3 Basic LTR/TAR and selecting positive clones with blasticidine. Clone C8166-LTRluc #A8-F5-G7 was selected by 3 consecutive rounds of limiting dilution under blasticidine selection. Cultures are maintained in complete media (consisting of: Roswell Park Memorial Institute medium (RPMI) 1640+10% FBS+10^−5 M β-mercaptoethanol+10 μg/mL gentamycin) with 5 μg/mL blasticidine, however, blasticidine selection is removed from the cells before performing the viral replication assay.
(§2) Serial dilutions of HIV-1 inhibitor compounds are prepared in complete media from 10 mM DMSO stock solutions. Eleven serial dilutions of 2.5× are made at 8× desired final concentration in a 1 ml deep well titer plate (96 wells). The 12th well contains complete media with no inhibitor and serves as the positive control. All samples contain the same concentration of DMSO 0.1% DMSO). A 25 μL aliquot of inhibitor is added, to triplicate wells, of a 96 well tissue culture treated clear view black microtiter plate (Corning Costar catalogue #3904). The total volume per well is 200 μL of media containing cells and inhibitor. The last row is reserved for uninfected C8166 LTRluc cells to serve as the background blank control and the first row is media alone.
(§3) C8166 LTRluc cells are counted and placed in a minimal volume of complete RPMI 1640 in a tissue culture flask (ex. 30×10^6 cells in 10 mL media/25 cm^2 flask). Cells are infected with HIV-1 or virus with variant integrase generated as described below at a […] (moi) of 0.005. Cells are incubated for 1.5 h at 37° C. on a rotating rack in a 5% CO2 incubator and re-suspended in complete RPMI to give a final concentration of 25,000-cells/175 μL. 175 μL of cell mix is added to wells of a 96 well microtiter plate containing 25 μL 8× inhibitors. 25,000 uninfected C8166-LTRluc cells/well in 200 μL complete RPMI are added to the last row for background control. Cells are incubated at 37° C. in 5% CO2 incubator for 3 days.
(§4) 50 μL Steady Glo (luciferase substrate T1/2=5 hours Promega catalogue #E2520) is added to each well of the 96 well plate. The relative light units (RLU) of luciferase is determined using the LUMIstar Galaxy luminometer (BMG LabTechnologies). Plates are read from the bottom for 2 seconds per well with a gain of 240.
(§5) The level of inhibition (% inhibition) of each well containing inhibitor is calculated as follows: […]
(§6) The calculated % inhibition values are used to determine EC50, slope factor (n) and maximum inhibition (Imax) by the non-linear regression routine NLIN procedure of SAS using the following equation: […]
(§7) The 2.12 virus with NL4.3 strain of HIV-1 integrase (SEQ ID NO: 1) is used for the Thr124/Thr125 variant integrase residues and HXB2 integrase is introduced into the 2.12 virus for the Ala124/Thr125 variant integrase residues. The remaining variants viruses are generated by site directed mutagenesis of NL4.3 integrase to introduce the Ala124/Ala125, Thr124/Ala125, Asn124/Thr125, or Asn124/Ala125 variants in the 2.12 virus. Molecular biology and generation of virus are performed in a similar manner to Doyon et al. J. Virol. 70(6):3763-9 (1996). Briefly, site directed mutagenesis is used to introduce silent mutations in the integrase gene of the 2.12 virus. […]

In test [2] the test system is HIV-1 2.12 virus with Thr124/Ala125 variant integrase. As to the kind of experiment: C8166 HIV-1 luciferase assay (EC50), T124/A125 integrase variant virus. The note with it: Human immunodeficiency virus 1, C8166, read-out: EC50 (nM) T124/A125.
Source text: as §1, §2, §3, §4, §5, §6, §7

For test [3], the system named is HIV-1 2.12 virus with Ala124/Thr125 variant integrase (HXB2 integrase). Put plainly: C8166 HIV-1 luciferase assay (EC50), A124/T125 integrase variant virus. The note with it: Human immunodeficiency virus 1, HXB2, C8166, read-out: EC50 (nM) A124/T125.
Source text: as §1, §2, §3, §4, §5, §6, §7

Test [4] concerns HIV-1 2.12 virus with Ala124/Ala125 variant integrase. Put plainly: C8166 HIV-1 luciferase assay (EC50), A124/A125 integrase variant virus. The note with it: Human immunodeficiency virus 1, C8166, read-out: EC50 (nM) A124/A125.
Source text: as §1, §2, §3, §4, §5, §6, §7

With `Cc1nc2ccccc2c(-c2ccc3c(c2)CCC3)c1[C@H](OC(C)(C)C)C(=O)O` [Compound 1023], the EC50 stood at 29 nM in test [1], 31 nM in test [2], 12 nM in test [3] and 37 nM in test [4].

As for `Cc1nc2ccccc2c(-c2ccc(CF)cc2F)c1[C@H](OC(C)(C)C)C(=O)O` [Compound 1018], the EC50 is 55 nM in test [1], 93 nM in test [2], 35 nM in test [3] and 110 nM in test [4].

For the molecule `Cc1ccc(-c2c([C@H](OC(C)(C)C)C(=O)O)c(C)nc3ccccc23)cc1C` [Compound 1008], the EC50 in test [1] was 59 nM; in test [2] it was 49 nM; in test [3], 11 nM; in test [4], 55 nM.

In the case of `Cc1nc2ccccc2c(-c2ccc3ncsc3c2)c1[C@H](OC(C)(C)C)C(=O)O` [Compound 1136], the EC50 in test [1] amounted to 200 nM; in test [2], 140 nM; in test [3] it was 91 nM; in test [4], 170 nM.

Take `Cc1nc2ccccc2c(-c2ccc3c(c2)C(C)CCO3)c1[C@H](OC(C)(C)C)C(=O)O` (stereo partly drawn) [Compound 1052]: the EC50 in test [1] was 120 nM; in test [2] it was 59 nM; in test [3], 28 nM; in test [4], 64 nM.

In the case of `Cc1nc2ccccc2c(OC(C)C)c1C(C(=O)O)c1ccc2c3c(ccnc13)CCO2` (stereo not drawn) [Compound 2001], the EC50 was found to be 110 nM in test [1], 120 nM in test [2], 71 nM in test [3] and 67 nM in test [4].

Consider `Cc1nc2ccccc2c(-c2ccc3c(c2)CCO3)c1[C@H](OC(C)(C)C)C(=O)O` [Compound 1014], for which the EC50 in test [1] is 87 nM; in test [2], 76 nM; in test [3], 19 nM; in test [4] it was 68 nM.

Take `Cc1nc2ccccc2c(-c2ccc(Cl)cc2F)c1[C@H](OC(C)(C)C)C(=O)O` [Compound 1010]: the EC50 was found to be 41 nM in test [1], 76 nM in test [2], 12 nM in test [3] and 49 nM in test [4].

As to `CCC(C)(C)Oc1c(C(C(=O)O)c2ccc3c4c(ccnc24)CCO3)c(C)nc2ccccc12` (stereo not drawn) [Compound 2002], the EC50 in test [1] was determined as 19 nM; in test [2] it was 24 nM; in test [3], 9.9 nM; in test [4], 13 nM.

The record behind these values is US8354429B2, “Inhibitors of human immunodeficiency virus replication” (priority 2007, dated 2013).
